Consider 9 compounds from PMC11489552, “Specific targeting of cancer vaccines to antigen-presenting cells via an endogenous TLR2/6 ligand derived from cysteinyl-tRNA synthetase 1” (Molecular Therapy, 2024).

Data set [1] deals with BMDCs. Description: In vitro antigen presentation ([…]/H-2K^b) in BMDCs. The data set is classed as cell-based, C57BL/6 mice. The procedure:
To examine TLR2-specific antigen uptake and presentation, BMDCs were isolated from TLR2^WT and TLR2^–/– mice as described above. BMDC cells (3 × 10^5) were seeded in the 24-well plate. […] C8138), 20 or 40 μM dynasore (Sigma, no. 324410), 1 or 2 μM cathepsin S inhibitor (MCE, no. LY 3000328), 1 or 2 μM methyl-β-cyclodextrin (Sigma-Aldrich, no. C4555), or 1 or 2 mM amiloride (Merck, no. A7410) 1 mg/mL for 30 min. After pretreatment, labeled or native samples were treated in the wells, followed by antigen uptake or presentation analyzed by flow cytometry as described above.

Data set [2] concerns BMDCs. The format is cell-based, C57BL/6 mice.
Another data set relates to DC2.4 cells. Description: In vitro cytotoxicity, CCK-8. To be noted: different concentrations, CCK-8 18 h after treatment. The procedure:
(§1) The in vitro cytotoxicity test was assessed using Cell Counting Kit (CCK)-8 assays (Dojindo, no. CK04). DC2.4, Raw 264.7, and TC-1 cells were seeded onto 96-well plates for 24 h before treating them with different concentrations of EUCV and doxorubicin. A 10% CCK-8 solution was added to each well 18 h after treatment, and the plates were incubated at 37°C in a 5% CO2 atmosphere for 30 min to 4 h. The absorbance at 450 nm was detected using an instrument. Relative cell viability was calculated as a percentage of untreated control cells. To assess in vivo toxicity, E7 (100.6 nmol) and EUCV at 25 mpk (25.2 nmol) and 100 mpk (100.6 nmol) were subcutaneously injected into the backs of C57BL/6 mice. […] Mouse body weight was measured immediately after administration and at 24 h intervals, and at 48 h the mice were euthanized to measure spleen size to evaluate splenomegaly. After vaccine administration, blood was drawn at 2, 8, and 24 h, and cytokines IL-6 (BD, no. 555240) and IL-12p40 (BD, no. 555165) in serum were quantified using ELISA.

A further data set has as its system Raw 264.7 cells. Description: In vitro cytotoxicity, CCK-8. To be noted: different concentrations, CCK-8 18 h after treatment. The procedure:
as §1

For the next data set, the system named is TC-1 cells. The experiment in a line: In vitro cytotoxicity, CCK-8. To be noted: different concentrations, CCK-8 18 h after treatment. The data set is classed as cell-based, mouse. The procedure: as §1
The next data set has as its target T1, hTLR2/6 (Homo sapiens, UniProt O60603+Q9Y2C9).
T1 construct: host or cells: HEK-Blue hTLR2/6 (HEK293-derived NF-kB/SEAP reporter cells)
The experiment in a line: HEK-Blue SEAP assay (NF-κB). The data set is classed as cell-based. To be noted: HEK-Blue hTLR2/6 cells, 24 h. How it is done: HEK-Blue hTLR2/6 (Invivogen, no. hkb-htlr26), hTLR2/1 (Invivogen, no. hkb-htlr21), and hTLR4 (Invivogen, no. hkb-htlr4) cells were cultured in DMEM (HyClone, no. SH30243.01) supplemented with 10% heat-inactivated FBS, 1% penicillin-streptomycin, and 100 μg/mL normocin (Invivogen, no. ant-nr-1), with added HEK-Blue Selection (Invivogen, no. hb-sel) added in medium after the cells were passaged twice. For the SEAP assay, HEK-Blue cells were harvested and resuspended to 2.8 × 10^5 cells/mL in a culture medium. […] The plates were then incubated for 24 h at 37°C, and 5% CO2 and the supernatant was collected. After removing the remaining cells by centrifugation, 20 μL of supernatant was transferred into a 96-well plate with 180 μL QUNATI-Blue solution (Invivogen, no. rep-pbs). All plates were incubated at 37°C, 5% CO2 for 3–4 h, and absorbance was measured at 620 nm with a microplate reader (TECAN, no. 30087502).

Data set [3] in a line: In vivo toxicity (body weight, spleen, serum cytokines). Set-up: species or system C57BL/6 mice. To be noted: s.c.; EUCV 25.2 and 100.6 nmol, Pam2CSK4 100.6 nmol, poly(I:C) 2.5 nmol; serum at 2, 8, 24 h, ELISA. (In general: In an ELISA, binding on a coated surface is turned into a signal by an enzyme label.)
For data set [4], the system named is spleen cells re-stimulated with epitope peptides. The experiment in a line: SLP screening, IFN-γ ELISpot. To be noted: 20 μg SLP with U (100 μg) s.c. twice, spleen cells 7 days after final immunization. The data set is classed as in vivo, C57BL/6 mice. How it is done: Seven-week-old C57BL/6 mice were immunized subcutaneously in the right back twice at 1-week intervals using SLPs (HPV16 E6_23–42, E6_43–62, E6_123–143, E75–25, E7_43–62, and E7_76–95; 20 μg per SLP) with U (100 μg). After 7 days at final immunization, cells were isolated from the spleen and seeded in the ELISpot well in triplicates (5 × 10^5 cells per well) with 10 μg/mL of re-stimulatory 8–9 mer epitope peptides (HPV16 E6_29–37, E6_49–57, E6_129–138, E7_11–19, E7_49–57, and E7_82–90), respectively. Antigen-specific immune responses were detected by AID EliSpot Reader (AID, no. ELR08).

The nature of data set [5]: Biodistribution to lymph nodes by IVIS imaging. The format is in vivo, C57BL/6 mice. To be noted: subcutaneous, 5 nmol FAM-labeled, IVIS over time, n = 3 per group. The procedure:
Seven-week-old C57BL/6 mice were subcutaneously injected with 5 nmol FAM-E-, FAM-E+U-, or FAM-labeled EUCV, respectively. After 0.5, 2, 6, or 24 h, organs were collected and washed with PBS to remove any remaining blood. For biodistribution analysis, images were obtained using an In Vivo Imaging System (IVIS) Lumina II imaging systems (PerkinElmer; excitation 494 nm, emission 518 nm) and analyzed by Living Image software.

Data set [6] can be described thus: Pharmacokinetics: plasma level of FAM-labeled antigen after injection. To be noted: subcutaneous, 5 nmol 5-FAM-labeled, C57BL/6 mice, n = 3 per group, plasma diluted 1:20 in PBS, fluorescence Ex/Em 494/518 nm, followed for 24 h. The format is in vivo. The procedure:
Seven-week-old mice were intravenously or subcutaneously injected with 5 nmol labeled SLP or protein. At the indicated time point, blood was collected using ophthalmic bleeding into heparin-coated micro hematocrit capillary tubes (Fisherbrand, no. 22-362574). After being transferred blood into a microtube, plasma was isolated from blood by centrifugation at 4°C for 10 min at 1,000 × g to eliminate the cells, and then centrifugation at 4°C for 15 min 2,000 × g for removed platelets. The plasma was diluted 1:20 into PBS and measured on Infinite 200 PRO (TECAN) against a standard curve of analytes diluted into PBS (Ex/Em: 494/518 nm). All plasma was normalized to the maximum fluorescence detected in the individual injection sample and plotted as percent injection dose (% ID) versus time. The half-life was calculated by fitting the intravenous plasma curve using C=C0×e^–kt . The subcutaneous curve was fit to C=[F×ka×C0/VD(ka–k)]×(e^–k×t–e^–ka×t ), where C is the plasma concentration of indicated times, C0 is the initial serum concentration, k is the elimination rate constant, F is the systemic absorbance, ka is the absorption rate constant, VD is the volume of distribution.[72] The curve graphs were represented using nonlinear regression on GraphPad Prism.

The test system of data set [7] is bone marrow-derived dendritic cells (BMDCs). The experiment in a line: BMDC stimulation: costimulatory molecules and cytokines. The format is cell-based, C57BL/6 mice. To be noted: 100 nM, 24 h, ELISA. How it is done: Bone marrow was harvested from femurs and tibias of C57BL/6 mice. Red blood cells were lysed with Pharm Lyse lysing solution (BD, no. 555899), and the remaining cells were washed using DPBS (HyClone, no. SH30378.02), followed by centrifugation to the collection. Bone marrow cells were resuspended at a concentration of 1 × 10^6 cells/mL in RPMI-1640 medium supplemented with 10% FBS, 1% streptomycin-penicillin, and 20 ng/mL GM-CSF (R&D Systems, no. 415-ML-005). On day 3, add an additional medium of the same supplemented as described above. BMDCs were harvested on day 6 and seeded at 3 × 10^5 cells/mL in 24-well plates for stimulation.
Differentiated THP-1, BMDC (3 × 10^5 cells per well) were seeded, and after 24 h starved with serum-free-medium for 1 h. […] To measure the inflammatory cytokine level, the culture medium was harvested, centrifuged at 500 × g for 10 min at 4°C, and the supernatant was separated. The expression of inflammatory cytokines was measured using hTNF-α (BD, no. 555212), IL-12p70 (BD, no. 555256), IL-12p40 (BD, no. 555165), and IL-6 (BD, no. 555240) ELISA kits according to the manufacturer’s instructions. To investigate the expression of costimulatory molecules on the cell surface, cells were harvested using dissociation buffer (5 mM EDTA in DPBS), washed, and stained with 1 μg/mL antibody, followed by flow cytometry analysis. […]

The test system of a further data set is TC-1 tumors. Description: TC-1 tumor model, combination with anti-PD-1 blockade. The data set is classed as in vivo, C57BL/6 mice. How it is done:
TC-1 tumor cells expressing HPV16-E6 and E7 proteins and E.G7-OVA cells expressing chicken OVA were used to generate of mouse tumor model. For the therapeutic cancer vaccine model, 7-week-old C57BL/6 mice were subcutaneously injected on the right flank with TC-1 cells (1 × 10^5 cells per mouse) in 100 μL DPBS. On day 6 when tumors measured 100 mm^3 […], treatment with 5 nmol of E, E+U, and EUCV was initiated as indicated in the schedule. On day 20 mice were sacrificed, and tumor tissues were collected for TILs analysis. For the anti-PD-1 antibody combination model, 5 nmol of E and EUCV was injected subcutaneously, and 200 μg of anti-PD-1 antibody (BioXcell, clone 29F.1A12, no. BE0273) was injected intraperitoneally as indicated in the schedule. On day 20 mice were sacrificed, and tumor tissues were collected for qRT-PCR and immunohistochemistry analysis. Survival was recorded by observing the mice up to 60 days and mice were euthanized when tumor volume reached 1,500 mm^3. For the E.G7-OVA tumor model, 7-week-old C57BL/6 mice were subcutaneously injected on the right flank with E.G7-OVA cells (1 × 10^6 cells per mouse) in 100 μL DPBS. On day 3 when the tumor measured 100 mm^3 […], treatment with 5 nmol of O, O+U, and OUCV was initiated as indicated in the schedule. On day 17 mice were sacrificed, and tumor tissue was collected for TIL analysis. In all experiments, tumors were measured 3 times a week using a caliper and calculated using the formula V(volume:mm^3)=L(length)×W^2(width)×0.52 ,[5] and mice were euthanize when tumor volume reached 1,500 mm^3.

The mark [8] stands for this setting: BMDCs pretreated 30 min with inhibitor, then 100 nM O, O+U or OUCV, flow cytometry.
The mark [9] stands for this setting: BMDCs pretreated 30 min with inhibitor at various concentrations, then FAM-labeled sample 100 nM 24 h, flow cytometry.

Read-outs that look alike come from different tables or passages of the source.

T1 sequence (O60603 21-784): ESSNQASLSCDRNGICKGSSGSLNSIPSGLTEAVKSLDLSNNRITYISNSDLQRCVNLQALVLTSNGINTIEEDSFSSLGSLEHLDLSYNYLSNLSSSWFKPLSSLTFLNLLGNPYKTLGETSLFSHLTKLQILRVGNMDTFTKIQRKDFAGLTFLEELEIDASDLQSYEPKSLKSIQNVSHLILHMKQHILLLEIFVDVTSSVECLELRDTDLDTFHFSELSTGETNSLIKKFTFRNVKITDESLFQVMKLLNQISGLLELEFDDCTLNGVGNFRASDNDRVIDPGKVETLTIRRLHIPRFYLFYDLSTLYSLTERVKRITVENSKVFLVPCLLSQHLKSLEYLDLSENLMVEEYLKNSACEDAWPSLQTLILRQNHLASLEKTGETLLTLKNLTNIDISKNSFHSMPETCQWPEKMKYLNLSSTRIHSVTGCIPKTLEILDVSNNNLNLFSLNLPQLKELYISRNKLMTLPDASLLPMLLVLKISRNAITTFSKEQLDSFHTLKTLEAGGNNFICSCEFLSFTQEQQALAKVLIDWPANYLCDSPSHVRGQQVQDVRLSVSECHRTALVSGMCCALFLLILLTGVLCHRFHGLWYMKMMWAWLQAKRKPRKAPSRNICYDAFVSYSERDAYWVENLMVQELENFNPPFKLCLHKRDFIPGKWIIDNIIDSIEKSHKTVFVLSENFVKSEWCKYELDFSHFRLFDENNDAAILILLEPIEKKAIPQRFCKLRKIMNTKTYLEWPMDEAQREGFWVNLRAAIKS
T1 sequence (Q9Y2C9 32-796): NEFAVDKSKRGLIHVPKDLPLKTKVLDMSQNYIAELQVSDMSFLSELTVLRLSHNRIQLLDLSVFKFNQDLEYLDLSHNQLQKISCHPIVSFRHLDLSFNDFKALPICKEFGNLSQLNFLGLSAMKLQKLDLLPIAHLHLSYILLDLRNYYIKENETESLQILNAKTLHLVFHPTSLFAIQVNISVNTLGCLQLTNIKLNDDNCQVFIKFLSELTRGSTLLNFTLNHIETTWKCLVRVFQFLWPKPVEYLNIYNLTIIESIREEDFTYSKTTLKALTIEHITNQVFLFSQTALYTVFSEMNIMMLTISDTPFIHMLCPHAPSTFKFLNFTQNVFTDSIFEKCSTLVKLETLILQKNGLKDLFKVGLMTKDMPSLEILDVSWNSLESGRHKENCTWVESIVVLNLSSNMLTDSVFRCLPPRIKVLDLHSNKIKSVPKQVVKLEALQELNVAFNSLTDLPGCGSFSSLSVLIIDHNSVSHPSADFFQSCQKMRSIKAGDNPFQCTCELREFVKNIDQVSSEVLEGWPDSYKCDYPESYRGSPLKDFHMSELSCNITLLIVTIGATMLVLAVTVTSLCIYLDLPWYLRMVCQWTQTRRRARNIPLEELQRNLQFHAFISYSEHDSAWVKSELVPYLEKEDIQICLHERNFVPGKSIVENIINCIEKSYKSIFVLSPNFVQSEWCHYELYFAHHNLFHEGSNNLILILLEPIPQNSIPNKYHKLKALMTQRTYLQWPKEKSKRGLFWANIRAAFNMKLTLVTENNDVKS

As for `CN(C)CCCN1c2ccccc2Sc2ccc(Cl)cc21` [CM, chlorpromazine], the “effect of inhibitor on antigen presentation (SIINFEKL/H-2K^b)” value (from here on “effect of inhibitor”) in the data set with BMDCs [1] (setting [8]) is “reduced”. Besides, the “effect of endocytosis/processing inhibitor on E+U and EUCV uptake” value with BMDCs [2] (setting [9]) is “reduced E+U and EUCV uptake”.

Regarding `CNC(=O)O[C@H]1COc2ccc(N3CCN(C4COC4)CC3)cc2[C@@H]1NC(=O)c1ccc(F)cc1` [CS], the “effect of inhibitor” value in the data set on BMDCs [1] is “reduction in antigen presentation”. For the same compound, the “effect of endocytosis/processing inhibitor on E+U and EUCV uptake” value in the data set with BMDCs [2] was “no change”.

Consider `COc1cccc2c1C(=O)c1c(O)c3c(c(O)c1C2=O)C[C@@](O)(C(=O)CO)C[C@@H]3O[C@H]1C[C@H](N)[C@H](O)[C@H](C)O1` [doxorubicin], for which the “cytotoxicity (relative cell viability)” value in the data set with DC2.4 cells, in the data set with Raw 264.7 cells and in the data set on TC-1 cells was “concentration-dependent toxicity” in each case.

Regarding `O=C(N/N=C/c1ccc(O)c(O)c1)c1cc2ccccc2cc1O` [dynasore], the “effect of inhibitor” value in the data set with BMDCs [1] (setting [8]) is “reduced”. Besides, in the data set with BMDCs [2] (setting [9]), the “effect of endocytosis/processing inhibitor on E+U and EUCV uptake” value was “reduced E+U and EUCV uptake”.

As for methyl-β-cyclodextrin [Mbcd], in the data set on BMDCs [2] (setting [9]), the “effect of endocytosis/processing inhibitor on E+U and EUCV uptake” value was “no change”.

For Pam2CSK4, on hTLR2/6, the “nuclear factor κB induction (SEAP, OD620)” value was “induced nuclear factor κB in TLR2/6-expressing cells”. The “bloodstream cytokines (IL-6, IL-12p40), systemic toxicity” value in data set [3] was “significant inflammatory cytokine expression”.

For the compound `N=C(N)NC(=O)c1nc(Cl)c(N)nc1N` [amiloride], the “effect of endocytosis/processing inhibitor on E+U and EUCV uptake” value in the data set on BMDCs [2] (setting [9]) is listed as “no change”.

Take poly(I:C): the “bloodstream cytokines (IL-6, IL-12p40), systemic toxicity” value in [3] is “significant inflammatory cytokine expression”.

Consider “GQAEPDRAHYNIVTFCCKCD [HPV-16 E7_43–62 synthetic long peptide antigen]”, for which the “IFN-γ activity among E6- and E7-derived SLPs” value in data set [4] was “highest interferon gamma (IFN-γ) activity”. Besides, the “distribution among inguinal, axillary and iliac lymph nodes” value in data set [5] is “diffused distribution to axillary and iliac LNs beyond inguinal LNs near the injection site”. Besides, the “time at which the blood concentration peaked” value in [6] was 0.25 h. For the same compound, the “secretion of IL-12p70 and IL-6” value in [7] is given as “absent”. Further, the “mortality by day 26” value in the data set on TC-1 tumors (TC-1 tumor-bearing mice, 5 nmol s.c. days 6 and 13, anti-PD-1 200 μg i.p. days 6, 9, 12, 15, n = 8) is recorded as 100%. Further, the “Complete regression (mice / group)” value with TC-1 tumors (TC-1 tumor-bearing mice, 60 days, n = 8 per group, printed in Figure 5C) is on record as 0/8. Further, in the data set with TC-1 tumors (TC-1 tumors, 5 nmol s.c. days 6 and 13, with or without anti-PD-1 blockade, n = 8), the tumor growth result is on record as “Neither E alone nor the combination of E+αPD-1 blockade significantly suppressed tumor growth”.
